The values below come from patent publication US5677329A, “Styryl-substituted monocyclic and bicyclic heteroaryl compounds which inhibit EGF receptor tyrosine kinase” (Rhone-Poulenc Rorer Pharmaceuticals, Inc., priority 1995, dated 1997).

By IC50 is commonly meant the concentration needed to halve the response being measured. As a reminder, the Km is the concentration of substrate that gives half-maximal velocity.

In one assay the target is T1, EGFR (Homo sapiens, UniProt P00533).
T1 construct: endogenous in cells; host or cells: A431 cells (detergent lysate, anti-EGF-R Ab 108 immunoprecipitate)
T1 sequence (P00533 25-1210): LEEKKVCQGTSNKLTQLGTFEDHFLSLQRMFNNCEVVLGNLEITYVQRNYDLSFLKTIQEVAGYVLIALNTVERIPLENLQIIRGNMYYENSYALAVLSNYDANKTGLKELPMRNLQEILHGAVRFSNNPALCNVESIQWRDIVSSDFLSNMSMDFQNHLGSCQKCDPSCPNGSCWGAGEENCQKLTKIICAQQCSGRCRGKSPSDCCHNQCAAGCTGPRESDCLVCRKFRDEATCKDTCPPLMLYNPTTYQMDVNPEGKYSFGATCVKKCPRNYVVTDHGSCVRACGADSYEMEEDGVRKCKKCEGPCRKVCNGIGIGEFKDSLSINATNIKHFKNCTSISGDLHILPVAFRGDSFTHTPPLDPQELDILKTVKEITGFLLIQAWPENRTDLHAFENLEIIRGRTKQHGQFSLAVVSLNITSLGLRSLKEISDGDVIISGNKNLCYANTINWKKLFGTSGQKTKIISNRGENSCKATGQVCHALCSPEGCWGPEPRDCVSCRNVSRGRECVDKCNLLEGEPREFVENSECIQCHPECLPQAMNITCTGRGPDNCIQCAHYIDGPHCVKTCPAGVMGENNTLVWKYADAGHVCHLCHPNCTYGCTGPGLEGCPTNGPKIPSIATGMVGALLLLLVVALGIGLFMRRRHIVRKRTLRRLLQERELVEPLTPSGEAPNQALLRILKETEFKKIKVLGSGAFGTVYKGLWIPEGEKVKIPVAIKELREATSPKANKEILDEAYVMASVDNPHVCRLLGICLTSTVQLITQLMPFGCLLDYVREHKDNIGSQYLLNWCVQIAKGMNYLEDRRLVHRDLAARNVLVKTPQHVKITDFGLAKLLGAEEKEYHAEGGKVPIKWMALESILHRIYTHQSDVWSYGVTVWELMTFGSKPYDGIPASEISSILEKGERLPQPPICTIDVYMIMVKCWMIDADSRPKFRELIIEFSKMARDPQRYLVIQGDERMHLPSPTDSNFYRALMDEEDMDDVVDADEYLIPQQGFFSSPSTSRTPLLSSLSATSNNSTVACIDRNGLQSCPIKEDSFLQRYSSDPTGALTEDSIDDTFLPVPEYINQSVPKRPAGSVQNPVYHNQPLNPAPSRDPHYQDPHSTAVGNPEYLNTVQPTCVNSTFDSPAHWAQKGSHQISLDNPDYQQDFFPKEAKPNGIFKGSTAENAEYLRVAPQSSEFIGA
The assay is described as follows: Inhibition of EGFR autophosphorylation (anti-EGF-R immunoprecipitate from A431 cells, EGF stimulation). The settings on record: for Relative inhibition of EGF receptor kinase, in words: comparison from Table V. In kind it is biochemical. The method, then: Inhibition of EGFR Autophosphorylation A431 cells were grown to confluence on human fibronectin coated tissue culture dishes. […] The reaction was stopped by adding hot electrophoresis sample buffer. […] "IC50," as used below, refers to the concentration of inhibitor (μM) at which the rate of autophosphorylation is halved, compared with media containing no inhibitor. […] The EGFR autophosphorylation inhibition was evaluated using the same procedure as described hereinbefore.

Another assay has as its target PDGF receptor kinase. The experiment in a line: Inhibition of autophosphorylation, procedure repeated with PDGF stimulation. In kind it is biochemical. As to conditions: Table III.
Assay [1] has as its system DNA synthesis in serum (FCS)-stimulated cells. The experiment in a line: Inhibition of cell proliferation as measured by inhibition of DNA synthesis ([3H]thymidine incorporation), serum (10% FCS)-stimulated cells. Type of assay: cell-based. The settings on record: 10% calf serum (FCS); for IC50: Table IV, [3H]thymidine incorporation halved; for inhibition at 1 µM: read-out: Inhibition of [3H]thymidine incorporation, FCS (printed in the IC50 - FCS column). The procedure: (§1) Inhibition of Cell Proliferation as Measured by Inhibition of DNA Synthesis Cells were seeded at 1×10^5 cells per well in 24-well Costar dishes pre-coated with human fibronectin (by incubating for 30 minutes at room temperature with 10 μg/0.5 ml/well). The cells were grown to confluence for 2 days. The medium was changed to DMEM containing […] for 36-48 hours and the cells were then incubated with PDGF, EGF (Toyobo, New York, N.Y.) (20 ng/ml) or serum (10% calf serum, FCS) and different concentrations of the inhibitory compounds. [^3 H]thymidine,(NEN, Boston, Mass.) was added 16-24 hours later at 0.5 μCi/ml for 2 hours. TCA precipitable material was quantitated by scintillation counting (C).

For assay [2], the system named is DNA synthesis in PDGF-stimulated cells. The experiment in a line: Inhibition of cell proliferation as measured by inhibition of DNA synthesis ([3H]thymidine incorporation), PDGF-stimulated cells. Type of assay: cell-based. The settings on record: Table IV; PDGF stimulation; [3H]thymidine incorporation halved. The method, then: as §1
A general note: Dividing cells build labelled thymidine or BrdU into new DNA.

The test system of the next assay is other protein kinases. As to conditions: cited from earlier work.
Assay [3] concerns EGF receptor. The experiment in a line: ATP dependence of EGF-receptor autophosphorylation (10-s assay). The settings on record: 15° C., read-out: Km for ATP in EGFR autophosphorylation. Type of assay: biochemical. The procedure: EGF-Receptor Purification
EGF-receptor purification is based on the procedure of Yarden and Schlessinger. A431 cells are grown in 80 cm^2 bottles to confluency (2×10^7 cells per bottle). The cells are washed twice with PBS and harvested with PBS containing 1.0 mmol EDTA (1 hour at 37° C.), and centrifuged at 600 g for 10 minutes. The cells are solubilized in 1 ml per 2×10^7 cells of cold solubilization buffer (50 mmol Hepes buffer, pH 7.6, 1% Triton X-100, 150 mmol NaCl, 5 mmol EGTA, 1 mmol PMSF, 50 μg/ml aprotinin, 25 mmol benzamidine, 5 μg/ml leupeptic, and 10 μg/ml soybean trypsin inhibitor) for 20 minutes at 4° C. After centrifugation at 100000 g for 30 minutes, the supernatant is loaded onto a WGA-agarose column (100 μl of packed resin per 2×10^7 cells) and shaken for 2 hours at 4° C. The unabsorbed material is removed and the resin washed twice with HTN buffer (50 mmol Hepes, pH 7.6, 0.1% Triton X-100, 150 mmol NaCl), twice with HTN buffer containing 1M NaCl, and twice with HTNG buffer (50 mmol Hepes, pH 7.6, 0.1% Triton X-100, 150 mmol NaCl, and 10% glycerol). The EGF receptor is eluted batchwise with HTNG buffer containing 0.5M N-acetyl-D-glucosamine (200 μl per 2×10^7 cells). The eluted material is stored in aliquots at -70° C. and diluted before use with TMTNG buffer (50 mmol Tris-Mes buffer, pH 7.6, 0.1% Triton X-100, 150 mmol NaCl, 10% glycerol).

Assay [4] concerns EGF receptor. As to conditions: membranes of A431 cells; cited from earlier work.
Assay [5] deals with cyclic adenosine 3', 5'-monophosphate (cAMP)-dependent protein kinase. The settings on record: compared with EGF receptor autophosphorylation; cited from earlier work.
[6] abbreviates: Table V, comparison with prior art compound C-1, same procedure as before, read-out: IC50, inhibition of EGFR autophosphorylation (Table V).
Where [7] appears, read: Table III, EGF stimulation, autophosphorylation 2 min at 4° C., read-out: IC50 EGF.

Entries after “also recorded” stand apart in the source; their conditions may differ. Where two headings read alike, the source gives them in different places.

For `N#C/C(=C\c1cc(Cl)cc(Cl)c1)c1cccnc1` [Example 1A, trans-2-(3-Pyridyl)-3-(3,5-dichlorophenyl)-2-propenenitrile], the IC50 on EGFR (setting [6]) was determined as 2000 nM. In addition, the “Relative inhibition of EGF receptor kinase, in words” value was “more potent inhibitor of EGF receptor kinase than C-1” on EGFR and “much better activity than that of its corresponding N-oxide” on EGFR (listed as 1-A).

For `N#CC(=Cc1ccc(Cl)cc1Cl)c1cccnc1` [Example C-1, 2-(3-pyridyl)-3-(2,4-dichlorophenyl)-2-propenenitrile, reference compound], on EGFR (setting [6]), the IC50 is no less than 50000 nM.

For `COc1ccc(C=C(C#N)c2cccnc2)cc1OC` [Example 7, 2-(3-Pyridyl)-3-(3,4-dimethoxyphenyl)-2-propenenitrile], the results for the IC50 against PDGF receptor kinase and on EGFR (setting [7]) were 30000 nM and 400 nM, respectively.

For `COc1ccc(C=C(C#N)c2c[nH]c3ccccc23)cc1OC` [Example 5, 2-(3-Indolyl)-3-(3,4-dimethoxyphenyl)-2-propenenitrile], the IC50 on PDGF receptor kinase stood at 10000 nM; on EGFR (setting [7]), 400 nM.

Take `N#C/C(=C\c1cc(Cl)cc(Cl)c1)c1ccc[n+]([O-])c1` [Example 2, trans-2-(3-pyridyl)-3-(3,5-dichlorophenyl)-2-propenenitrile, N-oxide]: the IC50 on PDGF receptor kinase was 20000 nM; in assay [1] it was 100 nM; in assay [2] it was 30 ± 17 nM; on EGFR (setting [7]), 100 nM; at EGFR (setting [6]), no less than 50000 nM.

As to `O=c1c(-c2ccc(O)cc2)coc2cc(O)cc(O)c12` [genistein], the “Competition with ATP; inhibition of other protein kinases, in words” value with other protein kinases was “compete with ATP, inhibit other protein kinases”.

Take `COc1ccc(C=C(C#N)c2cn(S(=O)(=O)c3ccc([N+](=O)[O-])cc3)c3ccccc23)cc1OC` [Example 6, 2-[1-(4-Nitrophenylsulfonyl)indol-3-yl]-3-(3,4-dimethoxyphenyl)-2-propenenitrile]: the IC50 was greater than 50000 nM on PDGF receptor kinase, 17 nM in assay [2] and 20000 nM at EGFR (setting [7]). Moreover, the inhibition at 1 µM in assay [1] was determined as 15%.

Take `Nc1ncnc2c1ncn2[C@@H]1O[C@H](COP(=O)(O)OP(=O)(O)OP(=O)(O)O)[C@@H](O)[C@H]1O` [ATP, adenosine triphosphate]: in the assay on EGF receptor [3], the Michaelis constant (Km) is 7.2 µM.

With `O=c1c(O)c(-c2ccc(O)c(O)c2)oc2cc(O)cc(O)c12` [quercetin], the “Competition with ATP; inhibition of other protein kinases, in words” value in the assay on other protein kinases is “compete with ATP, inhibit other protein kinases”.

On to `O=CN/C=C/c1cc(O)ccc1O` [erbstatin], for which, in the assay on EGF receptor [4], the “Inhibition of EGF receptor autophosphorylation, in words” value is “inhibits the autophosphorylation of the EGF receptor; also recorded: Low concentrations of erbstatin are required to inhibit EGF receptor autophosphorylation”. Besides, in assay [5], the “Concentrations required to inhibit cAMP-dependent protein kinase, in words” value is reported as “much higher concentrations of erbstatin are required”.

On to `CC(C)(C)c1cc(C=C(C#N)c2ccccn2)cc(C(C)(C)C)c1` [Example 4, 2-(2-Pyridyl)-3-(3,5-di-tert-butylphenyl)-2-propenenitrile], for which the values for the IC50 in assay [1] and in assay [2] were 500 nM and 9 ± 2 nM, respectively.

Turning to `COc1ccc(C=C(C#N)c2ccccn2)cc1OC` [Example 3, 2-(2-Pyridyl)-3-(3,4-dimethoxyphenyl)-2-propenenitrile], the IC50 was determined as 6000 nM against PDGF receptor kinase, 14 ± 10 nM in assay [2] and 500 nM at EGFR (setting [7]). In assay [1], the inhibition at 1 µM was found to be 27 ± 5%.
